The text below walks through data of patent publication EP1283052A1, “Pharmaceutical composition containing caspase-8 and /or caspase-9 useful for overcoming glucocorticoid- and cancer therapy-induced apoptosis of tumours” (Deutsches Krebsforschungszentrum Stiftung des öffentlichen …, priority 2001, dated 2003).

SMILES strings stand for the structures.

The assay has as its system apoptosome. As to the kind of experiment: Co-immunoprecipitation of apoptosome proteins with Apaf-1 in P5 cells. The class given is cell-based, human. To be noted: carcinoma cells (P5), cisplatin, 24 h; Fig. 5b. The procedure: • (a) P693 and CEM cells were treated with cisplatin (2 µg/ml) in the absence or presence of DEX (1 µM) as indicated. 24 and 48 h following treatment cells were lysed and caspase-9 activity was determined using a fluorescent caspase-9 assay and spectroscopy. • (b) P5 and CEM cells were treated as described above. 24 h after stimulation Apaf-1 was immunoprecipitated from the cell extracts using a […]. Aliquotes of the precipitates were separated by three different gels and analysed by Western blotting using rabbit polyclonal Apaf-1, mAb cytochrome c or caspase-9 antibodies. The antibody heavy chain band (IgGH) ensures equal conditions. […]
• (A) Cell culture. […] The mice were given 0.28 mg/L DEX in drinking water, and the amount of water consumed was monitored. […] The tumour volumes were measured using callipers, and calculated using, as an approximation, the formula for volume of a hemi-ellipsoid: π(width^2 x length)/6. […] Early apoptotic changes were identified by staining of cells with fluoresceinthiocyanate (FITC)-conjugated annexin V and propidium iodide (Becton Dickinson, Heidelberg, Germany) and analysed by flow cytometry (FACScan, Becton Dickinson) as described (Herr et al., EMBO J. 16 (1997), 6200-6208) • (E) Immunohistochemistry. […] Bound antibodies were detected by FITC conjugated anti-mouse or anti-rabbit IgG (Molecular Probes Europe, Leiden, The Netherlands). […]

As for `N.N.[Cl][Pt][Cl]` [cisplatin], the “amounts of immunoprecipitated apoptosome members (APAF-1, caspase-9, cytochrome c)” value is “strong induction in the amounts of APAF-1, caspase-9 and cytochrome c”.
